From patent US8012945B2, “Phage antibodies to radiation-inducible neoantigens” (Vanderbilt University, priority 2001, dated 2011)

Key:
[1] = target: T1, GP-IIb/IIIa receptors on activated platelets (Homo sapiens, UniProt P05106+P08514); assay: Clinical trial of x-ray-guided delivery, gamma camera/SPECT imaging of ^99mTc-labeled biapcitide; format: in vivo
T1 construct: endogenous in cells; host or cells: platelets in irradiated tumours of patients (in vivo imaging)
Method: Biapcitide (ACUTECT® available from Diatide, Inc., Londonderry, N.H., United States of America) is a synthetic peptide that binds to GP-IIb/IIIa receptors on activated platelets (Hawiger et al., 1989; Hawiger & Timmons, 1992). Biapcitide was labeled with ^99mTc in accordance with a protocol provided by Diatide Inc.
Reconstituted ^99mTc-labeled biapcitide was administered to patients at a dose of 100 mcg of biapcitide radiolabeled with 10 millicuries (mCi) of ^99mTc. […] Patients were then treated with 10 Gy or more. Patients underwent gamma camera imaging prior to irradiation and 24 hours following irradiation. Following planar image acquisition, those patients showing uptake in irradiated tumors underwent tomographic imaging using SPECT and repeat imaging at 24 hours. Patients showing no uptake on planer images during this 24-hour time frame had no further imaging.
Patients were treated with X-irradiation ranging from 4 to 18 MV photon using external beam linear accelerator at Vanderbilt University. Appropriate blocks, wedges and bolus to deliver adequate dose to the planned target volume was utilized. The site of irradiation, treatment intent and normal tissue considerations determined the radiation dosage and volume. When stereotactic radiosurgery was used, the dose was prescribed to the tumor periphery.
Image Analysis. Image acquisition consisted of both planar and single photon emission computed tomography (SPECT) studies. […] The spatial distribution of […] within the planar image was measured using region of interest (ROI) analysis. […] The rationale for using ROIs with different dimensions is to be able to quantify image counts while at the same time isolating any possible influence of ROI size on the results. […] Background counts was determined based on ROI analysis of a separate planar acquisition performed in the absence of a radioactive source.
Three-dimensional nuclear medicine SPECT examinations were performed using the same dual-head gamma camera system. […] SPECT tumor-to-background ratios were computed using quantitative ROI techniques identical to the planar studies.

B16F0 tumors = assay: Biotinylated dodecapeptide binding in B16F0 hind limb tumors, Avidin-FITC staining; format: in vivo, mice
Description: Observations. The peptide sequence within fibrinogen that binds to the activated GPIIb/IIIa receptor is the dodecapeptide […] (SEQ ID NO: 16). To determine whether […] (SEQ ID NO: 16) binds in irradiated tumors, applicant utilized the peptide […] (SEQ ID NO: 16) linked to biotin by a serine-glycine linker ([…]-SGSGSK-biotin; SEQ ID NO: 30). This peptide was synthesized in the Vanderbilt University Peptide Core Lab and biotinylated at the carboxyl terminus. The resulting […]-SGSGSK-biotin (SEQ ID NO: 30) was administered by tail vein injection into tumor bearing mice. B16F0 tumors in the hind limb were treated with sham irradiation (control), 4 Gy irradiation followed by […]-SGSGSK-biotin (SEQ ID NO: 30) injection, or […]-SGSGSK-biotin (SEQ ID NO: 30) followed by tumor irradiation (4 Gy). Tumors were frozen at 4 hours and sectioned for fluorescence staining. Avidin-FITC was incubated with tumor sections and imaged by UV microscopy.

α2bβ3 receptor = target: T2, α2bβ3 receptor (Mus musculus, UniProt O54890+Q9QUM0); assay: Recombinant phage binding in irradiated tumors after blocking antibody, plaque formation; format: in vivo; conditions: phage quantified by plaque formation
T2 construct: from tissue; host or cells: irradiated tumours (blood vessels and platelets) in living mice
T2 sequence (Q9QUM0 32-1033): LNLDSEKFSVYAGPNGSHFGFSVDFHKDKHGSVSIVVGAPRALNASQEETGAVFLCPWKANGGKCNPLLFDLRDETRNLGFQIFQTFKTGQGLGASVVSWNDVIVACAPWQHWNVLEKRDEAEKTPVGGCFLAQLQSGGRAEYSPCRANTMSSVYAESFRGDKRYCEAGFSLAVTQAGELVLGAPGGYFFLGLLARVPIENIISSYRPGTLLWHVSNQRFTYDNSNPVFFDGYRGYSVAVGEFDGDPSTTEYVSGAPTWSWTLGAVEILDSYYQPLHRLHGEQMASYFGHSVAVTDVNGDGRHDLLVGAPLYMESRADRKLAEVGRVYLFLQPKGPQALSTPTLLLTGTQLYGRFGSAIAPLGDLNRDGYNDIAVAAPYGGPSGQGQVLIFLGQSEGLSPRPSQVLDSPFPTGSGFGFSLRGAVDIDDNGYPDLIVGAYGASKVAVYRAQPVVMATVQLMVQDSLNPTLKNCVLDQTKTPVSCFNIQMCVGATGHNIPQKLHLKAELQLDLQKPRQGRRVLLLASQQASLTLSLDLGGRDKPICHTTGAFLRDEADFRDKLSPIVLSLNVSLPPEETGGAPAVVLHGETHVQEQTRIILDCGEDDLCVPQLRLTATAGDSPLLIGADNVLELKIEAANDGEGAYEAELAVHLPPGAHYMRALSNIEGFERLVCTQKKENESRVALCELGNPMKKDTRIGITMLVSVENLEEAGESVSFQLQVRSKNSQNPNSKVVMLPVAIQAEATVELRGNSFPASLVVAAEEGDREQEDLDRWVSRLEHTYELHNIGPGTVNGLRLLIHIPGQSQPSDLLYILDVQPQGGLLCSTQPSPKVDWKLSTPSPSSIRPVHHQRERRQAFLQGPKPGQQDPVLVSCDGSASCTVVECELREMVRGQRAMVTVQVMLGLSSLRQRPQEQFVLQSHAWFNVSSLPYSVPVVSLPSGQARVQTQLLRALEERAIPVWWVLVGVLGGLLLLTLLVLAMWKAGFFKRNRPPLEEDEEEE
T2 sequence (O54890 26-787): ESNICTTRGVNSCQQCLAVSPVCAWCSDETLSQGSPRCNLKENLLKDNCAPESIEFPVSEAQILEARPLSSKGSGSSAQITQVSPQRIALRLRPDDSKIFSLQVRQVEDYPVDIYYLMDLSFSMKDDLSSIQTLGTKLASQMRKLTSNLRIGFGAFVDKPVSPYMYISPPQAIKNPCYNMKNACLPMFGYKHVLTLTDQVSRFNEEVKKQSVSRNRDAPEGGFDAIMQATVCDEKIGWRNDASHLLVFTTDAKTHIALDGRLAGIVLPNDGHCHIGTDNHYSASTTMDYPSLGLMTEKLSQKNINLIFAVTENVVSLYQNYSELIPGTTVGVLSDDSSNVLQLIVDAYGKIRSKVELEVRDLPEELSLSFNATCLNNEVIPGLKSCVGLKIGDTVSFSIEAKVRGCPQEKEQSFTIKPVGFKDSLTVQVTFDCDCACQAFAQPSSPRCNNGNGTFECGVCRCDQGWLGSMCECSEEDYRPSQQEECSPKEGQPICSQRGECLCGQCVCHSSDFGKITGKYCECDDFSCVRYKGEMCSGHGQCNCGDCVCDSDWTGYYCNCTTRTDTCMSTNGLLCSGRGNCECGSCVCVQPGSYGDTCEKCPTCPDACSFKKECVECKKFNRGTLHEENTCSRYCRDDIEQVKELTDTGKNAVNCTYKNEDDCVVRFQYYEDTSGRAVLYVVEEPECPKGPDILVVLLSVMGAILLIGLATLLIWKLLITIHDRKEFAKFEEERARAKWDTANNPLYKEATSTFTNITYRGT
Method: The anti-[…]2b[…]3 monoclonal antibody was administered by tail vein to determine whether this receptor is required for recombinant phage binding in irradiated tumors. Phage encoding […] (SEQ ID NO: 5) on the capsid protein were injected immediately after blocking antibody or control antibody. Phage were recovered from the tumor and controls organs and quantified by plaque formation. Radiation induced a 4-fold increase in phage binding in tumor. […] Thus, the tumor binding activity of targeting peptide […] (SEQ ID NO: 5) is dependent on its interaction with the α2bβ3 receptor.

T1 sequence (P08514 32-887 limits assumed): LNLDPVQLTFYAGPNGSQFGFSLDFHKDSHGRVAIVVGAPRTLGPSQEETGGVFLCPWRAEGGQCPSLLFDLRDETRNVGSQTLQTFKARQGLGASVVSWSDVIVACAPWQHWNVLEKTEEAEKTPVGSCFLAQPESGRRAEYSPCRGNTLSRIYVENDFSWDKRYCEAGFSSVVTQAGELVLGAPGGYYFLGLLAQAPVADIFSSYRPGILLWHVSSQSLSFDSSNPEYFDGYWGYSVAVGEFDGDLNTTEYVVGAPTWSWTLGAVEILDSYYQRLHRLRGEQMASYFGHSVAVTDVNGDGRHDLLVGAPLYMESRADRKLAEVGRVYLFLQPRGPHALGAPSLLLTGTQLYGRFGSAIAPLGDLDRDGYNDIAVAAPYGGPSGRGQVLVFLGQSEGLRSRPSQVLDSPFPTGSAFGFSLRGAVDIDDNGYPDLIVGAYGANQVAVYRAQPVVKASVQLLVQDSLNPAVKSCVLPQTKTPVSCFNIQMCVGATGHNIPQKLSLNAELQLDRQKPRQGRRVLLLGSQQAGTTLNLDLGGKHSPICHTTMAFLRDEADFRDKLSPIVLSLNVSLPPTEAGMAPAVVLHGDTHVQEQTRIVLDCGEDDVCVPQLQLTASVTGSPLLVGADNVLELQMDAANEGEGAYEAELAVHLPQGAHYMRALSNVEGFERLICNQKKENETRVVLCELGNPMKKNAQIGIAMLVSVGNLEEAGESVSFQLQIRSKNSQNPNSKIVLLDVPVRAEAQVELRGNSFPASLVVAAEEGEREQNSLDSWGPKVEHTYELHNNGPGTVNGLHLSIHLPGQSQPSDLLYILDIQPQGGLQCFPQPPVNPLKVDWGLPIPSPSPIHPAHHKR
T1 sequence (P08514 891-1039 partner limits assumed): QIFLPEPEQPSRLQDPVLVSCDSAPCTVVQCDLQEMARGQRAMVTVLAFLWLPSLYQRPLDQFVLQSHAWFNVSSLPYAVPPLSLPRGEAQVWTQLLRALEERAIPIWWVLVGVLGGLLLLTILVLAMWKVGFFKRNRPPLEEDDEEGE
T1 sequence (P05106 27-788): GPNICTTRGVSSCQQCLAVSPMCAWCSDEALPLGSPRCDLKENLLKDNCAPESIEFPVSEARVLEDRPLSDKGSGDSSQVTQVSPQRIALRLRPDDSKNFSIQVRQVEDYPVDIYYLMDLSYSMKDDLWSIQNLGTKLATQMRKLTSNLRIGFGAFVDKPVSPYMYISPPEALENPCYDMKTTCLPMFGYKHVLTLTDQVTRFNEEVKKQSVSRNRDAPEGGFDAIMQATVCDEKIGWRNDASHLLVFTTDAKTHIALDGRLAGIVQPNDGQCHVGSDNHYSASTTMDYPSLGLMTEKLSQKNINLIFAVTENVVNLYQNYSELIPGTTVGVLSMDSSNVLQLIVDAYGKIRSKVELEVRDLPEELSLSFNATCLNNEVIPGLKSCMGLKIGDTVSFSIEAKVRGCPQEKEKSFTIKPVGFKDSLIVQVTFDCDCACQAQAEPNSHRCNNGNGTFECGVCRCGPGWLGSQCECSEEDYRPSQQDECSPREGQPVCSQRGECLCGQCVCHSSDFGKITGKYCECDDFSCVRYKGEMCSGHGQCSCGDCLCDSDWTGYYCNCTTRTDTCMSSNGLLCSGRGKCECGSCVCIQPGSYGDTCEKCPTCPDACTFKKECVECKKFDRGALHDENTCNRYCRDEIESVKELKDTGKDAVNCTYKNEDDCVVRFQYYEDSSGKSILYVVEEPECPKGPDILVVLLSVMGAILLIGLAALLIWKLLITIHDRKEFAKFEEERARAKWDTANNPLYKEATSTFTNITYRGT

Biapcitide [^99mTc-labeled biapticide] was tested, and the tumor binding ([1]; administered immediately prior to radiation) was 4 of 4, the “localization to the tumor” value ([1]; administered within one hour following radiation) was “failed to show localization” and the “binding in untreated tumor” value ([1]; second neoplasms not treated with radiation, two patients) was “not observed”.
For “HHLGGAKQAGDV (Artificial peptide ligand number 16) [dodecapeptide, segment of the γ subunit of fibrinogen]”, the “efficiency of schedule of administration” value (B16F0 tumors; administration prior to irradiation compared to radiation before administration) was “administration prior to irradiation is a more efficient schedule”.
For HHLGGAKQAGDV-SGSGSK-biotin, the “Avidin-FITC staining of tumor sections, irradiated tumors” value (B16F0 tumors; 4 Gy, tumors frozen at 4 hours) was “Avidin-FITC stained blood vessels were observed” and the “Avidin-FITC staining of tumor sections, untreated control” value (B16F0 tumors; sham irradiation) was “not in untreated control”.
“SLRGDGSSV (phage-displayed; Artificial peptide ligand number 5)” was tested, and the “radiation-induced increase in phage binding in tumor” value (α2bβ3 receptor) was 4 fold.
